Data on four molecules can be found in patent publication US11096980B2, “Method of using glycyrrhiza plant-based preparation to reduce toxic effect of polypeptide fungitoxin” (priority 2016, dated 2021).

This data set concerns IPEC-J2 cells. As to the kind of experiment: TEER cell culture assay: protective effect against polypeptide fungitoxins. It is filed as cell-based, porcine. The conditions noted are these: for TEER value after addition of toxin (negative control): toxin 0.2-10 μM added on day 8. Here is the method: In order to test the correlations of polypeptide fungitoxins on epithelial tissue under controlled conditions, in vitro studies were performed. Therein, well-characterized test systems based on cell cultures and described in the literature were employed. For feed additives, epithelial cells from the respective organ in question, e.g. in the present case IPEC-J2 cells from the porcine intestine, were preferred. The used epithelial cells from the porcine intestine offer the advantage of being non-transformed cells still having all the important properties of normal intestinal cells and large physiological similarities such as the formation of viable tight junction proteins, which are above all essential for the intestinal barrier, as well as the expression of characteristic enzymes and transport systems (e.g. P-glycoprotein, cytochrome P450 3A4, vit. B 12 transporters etc.).
For the in vitro examinations of a Glycyrrhiza dry extract, the latter was extracted once again, thus producing a secondary Glycyrrhiza extract. The secondary Glycyrrhiza extract was prepared in that 1 g of the Glycyrrhiza dry extract and 9 ml 70% ethanol was each weighed in, mixed, and shaken at 700 rpm for one hour at room temperature. After this, the solution was centrifuged, and the liquid supernatant was sterile filtered using a 0.2 μm filter and further diluted with IPEC-J2 medium. The secondary Glycyrrhiza extract was tested in vitro in the following concentrations: 250 μg, 500 μg and 1,000 μg Glycyrrhiza dry extract per ml medium in the test formulation, in the following also referred to as 250, 500 and 1,000 μg/ml secondary Glycyrrhiza extract.
The TEER technique described by Geens and Niewold (Cytotechnology, 2011, 63, 415 et seq.) was used in an adapted form. In this in vitro model, intestinal porcine epithelial cells (IPEC-J2, DSMZ No.: ACC 701, Passage 1-15) are cultivated in an insert on a permeable polyester membrane (1.12 cm^2 surface area, 0.4 μm pore size, 12 mm membrane diameter) and differentiated in the incubator for a period of 8 days at 39° C. and 5% CO2. Per insert, 1×10^∧5 cells in 0.5 ml medium are applied to the respective membrane. During said differentiation period, the used medium was aspirated every other day and replaced with fresh medium. The insert was fixed in a 12-well cell culture plate, and the cells were supplied with 1.5 ml medium from below (basolateral compartment) and with 0.5 ml medium from above (apical compartment). […]
Differentiated cells form a cell barrier, being strongly interconnected by tight junction proteins. […] The intactness of the cell barrier is measured by means of a volt-ohmmeter: The electrical resistance between the two compartments is referred to as TEER (transepithelial electrical resistance) value and represented in kOhm×cm^2. […]

Take `CC[C@H](C)[C@H]1C(=O)O[C@H](C(C)C)C(=O)N(C)[C@@H]([C@@H](C)CC)C(=O)O[C@H](C(C)C)C(=O)N(C)[C@@H]([C@@H](C)CC)C(=O)O[C@H](C(C)C)C(=O)N1C` [enniatin A]: the “TEER mean value (toxin)” value (enniatin A 5 μM alone (negative control), after 24 hours) came out at 3.928 kOhm×cm^2.

Regarding `CCC(=O)CCCCC[C@@H]1NC(=O)[C@H]2CCCCN2C(=O)[C@H]([C@@H](C)CC)NC(=O)[C@H](Cc2cn(OC)c3ccccc23)NC1=O` [apicidin], the “TEER value after addition of toxin (negative control)” value was “lowered”.

In the case of enniatins, the “TEER value after addition of toxin (negative control)” value is “lowered”.

Turning to `CC1(C)[C@@H](O[C@H]2O[C@H](C(=O)O)[C@@H](O)[C@H](O)[C@H]2O[C@@H]2O[C@H](C(=O)O)[C@@H](O)[C@H](O)[C@H]2O)CC[C@]2(C)[C@H]3C(=O)C=C4[C@@H]5C[C@@](C)(C(=O)O)CC[C@]5(C)CC[C@@]4(C)[C@]3(C)CC[C@@H]12` [glycyrrhizic acid], the “Effect in the TEER test against enniatins A, A1, B, B1, beauvericin and apicidin relative to the negative controls” value (70 μg/ml (corresponding to 1.000 μg/ml secondary Glycyrrhiza extract)) is “no positive effect”.
